The source of these data is patent publication US7947284B2, “Purified component of blue-green algae and method of use” (Desert Lake Technologies, priority 2005, dated 2011).

The test system of this experiment is CXCR4 expression on the human CD34+ cell line KG-1a. Nature of the experiment: Fucoidan-induced CXCR4 expression on KG-1a cells (flow cytometry). The experiment is classed as cell-based. The following applies: KG-1a incubated with the agonist alone. From the text:
Immunostaining for CXCR4 expression induced by L-selectin ligands: The binding of Fucoidan to L-selectin results in externalization of pre-made CXCR4 onto the cell surface, followed by internalization, creating a window in time for responsiveness to chemotactic factors. This system was used to examine whether AFA-W would compete with Fucoidan for binding to L-selectin on the leukocyte cell surface, and to assess whether it would block this functional effect from another L-selectin ligand. To do so, freshly purified human PBMC were resuspended in RPMI, and distributed in a series of round-bottom microwells. Fucoidan was added to one series of wells, AFA-W to another series, and a mixture of Fucoidan and AFA-W was added to the third series of wells. […] Cells were washed in phosphate-buffered saline containing azide, stained with CXCR4-PE using the staining protocol described above, fixed in formalin, and analyzed by flow cytometry.
The primitive cell line KG-1a is brightly positive for CD34 and for L-selectin, as evaluated by staining with the TQ1 monoclonal antibody. […]
The expression of CXCR4 receptors following exposure to fucoidan was evaluated on lymphocytes using flow cytometry.
In general terms: A flow cytometer gives signals particle by particle.

In the case of Fucoidan, the “effect on expression of the chemokine receptor CXCR4” value is “triggers the expression”.
